From US11957783B2, “Topical immunosensitizers to treat viral and fungal infections” (Squarex, LLC, priority 2018, dated 2024)

Tested on: peripheral blood mononuclear cells (PBMC)
Test: Cytokine and immune-function gene expression of PBMC in vitro (qRT-PCR, 41 immune-related genes)
Format: cell-based, human
Method: After a screening visit at which blood was drawn to test for IgG antibody against HSV-1 and subjects were interviewed for inclusion/exclusion criteria, selected subjects returned for blood draws on day 1. After the blood draw on day 1, subjects in group A only were dosed with SADBE. A petrolatum donut was applied with a cotton swab to form about a 1 cm diameter donut on skin on the inner aspect of the upper arm. Then a separate cotton swab was dipped in a 2% SADBE solution (w/v) in DMSO, and the swab was then used to apply about 10-20 mg of solution over about a 1 cm diameter circle within the petrolatum donut. Immediately after application, the application site was covered with TEGADERM. Subjects were advised to remove the TEGADERM and rinse and wipe the spot three hours later. The group A subjects then returned for blood draws on days 15 and 57 and were queried about adverse events on those dates.
PBMC were isolated using SepMate PBMC isolation tubes (Stem Cell Technologies, Vancouver, Canada) and Ficoll-Paque according to the manufacturer's instructions. PBMC were isolated and suspended in negative control medium at 2 million cells/ml. PBMC suspension (100 μL) was added to 100 μL of medium in quadruplicate in 96-well plates. The plates were prepared in advance and stored at −70° C. The wells were in five different conditions in quadruplicate with these final concentrations after addition of the 100 μL of PBMC suspension in negative control medium. • 1. Negative control in medium (RPMI with glutamine and pen/strep, supplemented with 10% human A/B serum). • 2. Medium plus 16 μg/ml protein from heat-inactivated HSV-1-infected Vero cell extracts. • 3. Medium plus heat-inactivated HSV-1 cell-free virus at a final 7.5 million pfu/ml. • 4. Medium plus Candida cell extract. (Greer item number M15A50, 20,000 pnu/ml allergenic extract mixed molds Candida albicans, was diluted 1/50 into medium). • 5. Positive control, medium plus 10 μg/ml concanavalin A.
Two plates were created for each subject at each collection point. One plate was incubated for 2 days at 37° C. in a humidified 5% CO2 atmosphere and then RNA was isolated from the pooled contents of the 4 wells of a given condition for a specific patient, and the RNA was stored at −70° C. and subsequently used for quantitative real time PCR analysis of gene expression of 41 immune-related genes.
As noted above, after 2 days of growth of the PBMC in a 37° C. humidified 5% CO2 incubator in a 96-well plate, four wells of a single condition (negative control, positive control, heat-inactivated HSV-1, HSV-1-infected cell extracts, or Candida extract) with cells from a single subject (200 μL in each well) were pooled, and the RNA was immediately isolated with Trizol reagent and chloroform by Qiagen RNeasy MiniElute clean up kit Qiagen cat #74204, according to manufacturer's instructions into a final volume of 13 μL, and then flash frozen on powdered dry ice, and stored at −70° C. in aliquots of 3 μL for RNA quantification and 10 μL for PCR analysis.
RNA was preamplified with the Qiagen RT2 PreAMP cDNA synthesis kit (Ref. 330451) and custom RT2 PreAmp primer mix (Ref. 330141) starting with about 50 ng RNA according to the procedure of RT preamp cDNA synthesis handbook date March 2011, pages 17-20. The amplification reactions (final 120 μL) were frozen at −70° C. and used for qPCR analysis the next day.
qPCR was done with the Qiagen RT PCR profiler gene analysis kit (catalog number 330451) using RT2 Sybr Green Rox qPCR Mastermix (24) (Part 330523) and Custom RT2 PCR array plates (Ref. 330171). For this 675 μL 2×RT2 SYBR green mastermix, 51 μL pre-AMP synthesis reaction, and 623 μL RNase free water were mixed, and then 25 μL of the mixture was added to 48 wells on the left or right half of the custom PCR plate. The PCR instrument was Applied Biosystems 7900HT fast real time PCR. […]

[1] = Group A, HSV-infected cell extracts

CCCCOc1c(OCCCC)c(=O)c1=O [SADBE, 3,4-Dibutoxy-3-cyclobutene-1,2-dione]
Ratio of absolute IFNG gene expression in group A vs. Groups B + C pooled (Candida, group A day 57 after SADBE): 2.684 | CCL2 ratio of PBMC absolute gene expression day 15/day 1 (Group A, Candida): 0.73 | CCL2 ratio of PBMC absolute gene expression day 57/day 1 (Group A, Candida): 1.16 | CCL3 ratio of PBMC absolute gene expression day 15/day 1 (Group A, Candida): 0.33 | CCL3 ratio of PBMC absolute gene expression day 57/day 1 (Group A, Candida): 1.79 | CCL7 ratio of PBMC absolute gene expression day 15/day 1 (Group A, Candida): 0.66 | CCL7 ratio of PBMC absolute gene expression day 57/day 1 (Group A, Candida): 2.03 | CCR5 ratio of PBMC absolute gene expression day 15/day 1 (Group A, Candida): 1.16 | CCR5 ratio of PBMC absolute gene expression day 57/day 1 (Group A, Candida): 1.42 | CD80 ratio of PBMC absolute gene expression day 15/day 1 (Group A, Candida): 0.75 | CD80 ratio of PBMC absolute gene expression day 57/day 1 (Group A, Candida): 1.57 | CXCL2 ratio of PBMC absolute gene expression day 15/day 1 (Group A, Candida): 0.39 | CXCL2 ratio of PBMC absolute gene expression day 57/day 1 (Group A, Candida): 1.10 | CXCL5 ratio of PBMC absolute gene expression day 15/day 1 (Group A, Candida): 0.46 | CXCL5 ratio of PBMC absolute gene expression day 57/day 1 (Group A, Candida): 1.45 | CXCL9 ratio of PBMC absolute gene expression day 15/day 1 (Group A, Candida): 2.52 | CXCL9 ratio of PBMC absolute gene expression day 57/day 1 (Group A, Candida): 14.21 | CXCL10 ratio of PBMC absolute gene expression day 15/day 1 (Group A, Candida): 2.87 | CXCL10 ratio of PBMC absolute gene expression day 57/day 1 (Group A, Candida): 12.8 | CXCL11 ratio of PBMC absolute gene expression day 15/day 1 (Group A, Candida): 1.06 | CXCL11 ratio of PBMC absolute gene expression day 57/day 1 (Group A, Candida): 2.53 | DDX58 ratio of PBMC absolute gene expression day 15/day 1 (Group A, Candida): 1.08 | DDX58 ratio of PBMC absolute gene expression day 57/day 1 (Group A, Candida): 1.29 | FOXP3 ratio of PBMC absolute gene expression day 15/day 1 (Group A, Candida): 1.16 | FOXP3 ratio of PBMC absolute gene expression day 57/day 1 (Group A, Candida): 2.01 | GATA3 ratio of PBMC absolute gene expression day 15/day 1 (Group A, Candida): 1.12 | GATA3 ratio of PBMC absolute gene expression day 57/day 1 (Group A, Candida): 0.28 | ICAM1 ratio of PBMC absolute gene expression day 15/day 1 (Group A, Candida): 1.03 | ICAM1 ratio of PBMC absolute gene expression day 57/day 1 (Group A, Candida): 1.27 | IFNA1 ratio of PBMC absolute gene expression day 15/day 1 (Group A, Candida): 1.42 | IFNA1 ratio of PBMC absolute gene expression day 57/day 1 (Group A, Candida): 2.13 | IFNB1 ratio of PBMC absolute gene expression day 15/day 1 (Group A, Candida): 1.03 | IFNB1 ratio of PBMC absolute gene expression day 57/day 1 (Group A, Candida): 0.93 | IFNG ratio of PBMC absolute gene expression day 15/day 1 (Group A, Candida): 0.81 | IFNG ratio of PBMC absolute gene expression day 57/day 1 (Group A, Candida): 8.54 | IL1B ratio of PBMC absolute gene expression day 15/day 1 (Group A, Candida): 0.17 | IL1B ratio of PBMC absolute gene expression day 57/day 1 (Group A, Candida): 1.73 | IL1R1 ratio of PBMC absolute gene expression day 15/day 1 (Group A, Candida): 0.69 | IL1R1 ratio of PBMC absolute gene expression day 57/day 1 (Group A, Candida): 0.9 | IL1RN ratio of PBMC absolute gene expression day 15/day 1 (Group A, Candida): 1 | IL1RN ratio of PBMC absolute gene expression day 57/day 1 (Group A, Candida): 1.91 | IL2 ratio of PBMC absolute gene expression day 15/day 1 (Group A, Candida): 0.75 | IL2 ratio of PBMC absolute gene expression day 57/day 1 (Group A, Candida): 6.31 | IL4 ratio of PBMC absolute gene expression day 15/day 1 (Group A, Candida): 1.12 | IL4 ratio of PBMC absolute gene expression day 57/day 1 (Group A, Candida): 1.52 | IL5 ratio of PBMC absolute gene expression day 15/day 1 (Group A, Candida): 1.23 | IL5 ratio of PBMC absolute gene expression day 57/day 1 (Group A, Candida): 1.10 | IL8 ratio of PBMC absolute gene expression day 15/day 1 (Group A, Candida): 0.44 | IL8 ratio of PBMC absolute gene expression day 57/day 1 (Group A, Candida): 1.89 | IL10 ratio of PBMC absolute gene expression day 15/day 1 (Group A, Candida): 0.6 | IL10 ratio of PBMC absolute gene expression day 57/day 1 (Group A, Candida): 1.12 | IL12A ratio of PBMC absolute gene expression day 15/day 1 (Group A, Candida): 1.02 | IL12A ratio of PBMC absolute gene expression day 57/day 1 (Group A, Candida): 1.64 | IL12B ratio of PBMC absolute gene expression day 15/day 1 (Group A, Candida): 0.78 | IL12B ratio of PBMC absolute gene expression day 57/day 1 (Group A, Candida): 3.61 | IL13 ratio of PBMC absolute gene expression day 15/day 1 (Group A, Candida): 0.6 | IL13 ratio of PBMC absolute gene expression day 57/day 1 (Group A, Candida): 4.28 | IL15 ratio of PBMC absolute gene expression day 15/day 1 (Group A, Candida): 1.09 | IL15 ratio of PBMC absolute gene expression day 57/day 1 (Group A, Candida): 2.18 | IL16 ratio of PBMC absolute gene expression day 15/day 1 (Group A, Candida): 1.02 | IL16 ratio of PBMC absolute gene expression day 57/day 1 (Group A, Candida): 0.81 | JAK2 ratio of PBMC absolute gene expression day 15/day 1 (Group A, Candida): 1.1 | JAK2 ratio of PBMC absolute gene expression day 57/day 1 (Group A, Candida): 1.68 | LTA ratio of PBMC absolute gene expression day 15/day 1 (Group A, Candida): 1.15 | LTA ratio of PBMC absolute gene expression day 57/day 1 (Group A, Candida): 1.94 | LYZ ratio of PBMC absolute gene expression day 15/day 1 (Group A, Candida): 2.22 | LYZ ratio of PBMC absolute gene expression day 57/day 1 (Group A, Candida): 0.93 | MX1 ratio of PBMC absolute gene expression day 15/day 1 (Group A, Candida): 1.28 | MX1 ratio of PBMC absolute gene expression day 57/day 1 (Group A, Candida): 1.34 | NOD1 ratio of PBMC absolute gene expression day 15/day 1 (Group A, Candida): 1.19 | NOD1 ratio of PBMC absolute gene expression day 57/day 1 (Group A, Candida): 1.18 | SPP1 ratio of PBMC absolute gene expression day 15/day 1 (Group A, Candida): 2.32 | SPP1 ratio of PBMC absolute gene expression day 57/day 1 (Group A, Candida): 7.34 | STAT1 ratio of PBMC absolute gene expression day 15/day 1 (Group A, Candida): 1.12 | STAT1 ratio of PBMC absolute gene expression day 57/day 1 (Group A, Candida): 3.36 | STAT4 ratio of PBMC absolute gene expression day 15/day 1 (Group A, Candida): 1.07 | STAT4 ratio of PBMC absolute gene expression day 57/day 1 (Group A, Candida): 1.76 | TNF ratio of PBMC absolute gene expression day 15/day 1 (Group A, Candida): 0.85 | TNF ratio of PBMC absolute gene expression day 57/day 1 (Group A, Candida): 1.22 | TNFSF10 ratio of PBMC absolute gene expression day 15/day 1 (Group A, Candida): 1.02 | TNFSF10 ratio of PBMC absolute gene expression day 57/day 1 (Group A, Candida): 1.52 | TNFSF13B ratio of PBMC absolute gene expression day 15/day 1 (Group A, Candida): 1.14 | TNFSF13B ratio of PBMC absolute gene expression day 57/day 1 (Group A, Candida): 1.62 | CCL2 ratio of PBMC absolute gene expression day 15/day 1 [1]: 0.88 | CCL2 ratio of PBMC absolute gene expression day 57/day 1 [1]: 1.21 | CCL3 ratio of PBMC absolute gene expression day 15/day 1 [1]: 1.31 | CCL3 ratio of PBMC absolute gene expression day 57/day 1 [1]: 4.60 | CCL7 ratio of PBMC absolute gene expression day 15/day 1 [1]: 0.92 | CCL7 ratio of PBMC absolute gene expression day 57/day 1 [1]: 0.75 | CCR5 ratio of PBMC absolute gene expression day 15/day 1 [1]: 1.00 | CCR5 ratio of PBMC absolute gene expression day 57/day 1 [1]: 0.93 | CD80 ratio of PBMC absolute gene expression day 15/day 1 [1]: 0.90 | CD80 ratio of PBMC absolute gene expression day 57/day 1 [1]: 0.93 | CXCL2 ratio of PBMC absolute gene expression day 15/day 1 [1]: 1.02 | CXCL2 ratio of PBMC absolute gene expression day 57/day 1 [1]: 2.79 | CXCL5 ratio of PBMC absolute gene expression day 15/day 1 [1]: 1.24 | CXCL5 ratio of PBMC absolute gene expression day 57/day 1 [1]: 6.03 | CXCL9 ratio of PBMC absolute gene expression day 15/day 1 [1]: 1.12 | CXCL9 ratio of PBMC absolute gene expression day 57/day 1 [1]: 0.91 | CXCL10 ratio of PBMC absolute gene expression day 15/day 1 [1]: 0.82 | CXCL10 ratio of PBMC absolute gene expression day 57/day 1 [1]: 0.49 | CXCL11 ratio of PBMC absolute gene expression day 15/day 1 [1]: 0.53 | CXCL11 ratio of PBMC absolute gene expression day 57/day 1 [1]: 0.31 | DDX58 ratio of PBMC absolute gene expression day 15/day 1 [1]: 0.72 | DDX58 ratio of PBMC absolute gene expression day 57/day 1 [1]: 0.94 | FOXP3 ratio of PBMC absolute gene expression day 15/day 1 [1]: 1.15 | FOXP3 ratio of PBMC absolute gene expression day 57/day 1 [1]: 1.11 | GATA3 ratio of PBMC absolute gene expression day 15/day 1 [1]: 2.84 | GATA3 ratio of PBMC absolute gene expression day 57/day 1 [1]: 2.6 | ICAM1 ratio of PBMC absolute gene expression day 15/day 1 [1]: 1.05 | ICAM1 ratio of PBMC absolute gene expression day 57/day 1 [1]: 0.77 | IFNA1 ratio of PBMC absolute gene expression day 15/day 1 [1]: 0.80 | IFNA1 ratio of PBMC absolute gene expression day 57/day 1 [1]: 1.29 | IFNB1 ratio of PBMC absolute gene expression day 15/day 1 [1]: 0.65
